From patent US6677366B2, “Methods, compositions and articles for reducing or preventing the effects of inflammation” (QLT Inc., priority 1997, dated 2004)

Legend:
filtration bleb [1] = conditions: previous rabbit studies; cited from earlier work
patients [2] = conditions: topical ointment postoperatively; cited from earlier work
bleb scarring = conditions: in vivo; cited from earlier work
patients [3] = conditions: human, in vivo; cited from earlier work
ocular fibroblasts = conditions: cited from earlier work
filtration bleb [4] = assay: Pilot light dosing of topical BPD-MA PDT during filtration surgery (Example 1); type: in vivo, rabbit
Description: Filtration surgery was performed on one eye in six normal rabbits. A Weck cell sponge was saturated with a 2 mg/mL aqueous solution of the photosensitizer benzoporphyrin derivative monoacid ring A (BPD-MA, also known as “BPD-verteporfin”). During surgery, the saturated Weck cell was used to apply BPD-MA topically for two minutes to the sclera and conjunctiva in the surgical field. After washing out the excess drug with BSS, both the sclera and conjunctiva were exposed to red light having a wavelength of about 690 nm, which was delivered by a light emitting diode (“LED”) placed at a distance of about 1 cm from the tissue to be irradiated. Each of the six rabbits used in this experiment received a different dose of light, specifically, 0, 3, 6, 12, 18 and 24 J/cm^2 over a 30-second to 4-minute time period. The treated rabbits were followed for 11-12 days after surgery by determining filtration bleb height, bleb vascularity (indicative of inflammation), and reduction in intraocular pressure (“IOP”). The data obtained on day 5 and day 11 are shown below in Tables 1A and 1B respectively.

filtration bleb [5] = assay: Times of PDT administration, full thickness filtration surgery (Example 2); type: in vivo, rabbit
Description: The photosensitizer used in the example was prepared as follows: A liposomally formulated benzoporphyrin derivative, monoacid ring A, BPD-MA or BPD-verteporfin was supplied by QLT PhotoTherapeutics, Inc. as a lyophilized powder and was reconstituted with sterile distilled water shortly before use. The BPD was reconstituted to 1.98 mg/mL was used to saturate the 3 mm cut end of a Weck cell. In control groups, the Weck cell was saturated with basic salt solution (“BSS”).
On day 0, full thickness filtration surgery was performed on one randomly selected eye in 48 rabbits, 12 in each of four groups. In each rabbit, the untreated other eye served as a control. The filtration procedure was performed in the following manner: Each animal was anesthetized with a mixture of ketamine and xylazine. A wire speculum was used to separate the eyelids. […] Following creation of the fornix-based flap, the Weck cell saturated with BPD-MA (or BSS placebo) was placed on the sclera posterior to the limbus where the fistula was to be created. The conjunctiva was draped over the Weck Cell. The Weck cell thus rested between the conjunctiva and sclera, also coming into contact with the episclera and Tenon's capsule, for two minutes. The Weck cell was then removed and the area was irrigated with BSS. Instruments and gloves were also rinsed before entering the eye, and a 1.0 mm trephine was used to enter the anterior chamber.
The conjunctival flap was then secured to the limbus using two 7-0 vicryl sutures. […] The light source was used at a maximum output ([…]), which provided a total dosage of approximately 7.2 J.
A drop of tobramycin was then placed into each eye following surgery. Tobramycin and prednisolone acetate were instilled in both eyes four times a day for one week following surgery.
(§1) The control eye received the same photosensitizer and irradiation subconjunctivally as the surgical eye, but without a fistula being created. The control eye was used to test toxicity and as a basis for detecting a decrease in IOP for the surgical eye. The time at which the BPD-MA was applied was varied, as follows:
BPD treatment at 48 hours post surgery consisted of the application of the 3 mm cut end of a Weck cell saturated with a 2 mg/mL aqueous solution of BPD-MA (or placebo) laid on the conjunctiva over the filtration bleb for two minutes, followed by washing out the excess photosensitizer and exposure to red LED light having a wavelength of 688 nm for one minute.
(§2) Postoperatively at day 0 and every two days following surgery, the rabbits were examined with slit lamp biomicroscopy to evaluate filtration bleb extent, filtration bleb height, conjuctival erythema over the bleb, anterior chamber cell flare, and anterior chamber depth. Applanation tonometry to measure IOP following topical anesthesia. A subjective ocular discomfort assessment was also performed by determining animal comfort and eating habits, in accordance with the grading scale shown below:
Bleb survival was assessed by the extent and height of the bleb and by IOP as compared with the control eye. The degree of the inflammatory response was determined by erythema over the filtration bleb and was scored on a scale of 0-3. Rabbits were terminated when bleb failure was noted, i.e., when the intraocular pressure in the surgical eye equaled that of the control eye and the filtration bleb was flat.

filtration bleb [6] = type: in vivo
Description: At day 7, one rabbit from each group and, following bleb failure, two rabbits from each group, were sacrificed to undergo histologic and transmission electron microscopic (“TEM”) analysis. Histologic evaluation was performed after first fixing the cadaver eyes with 10% buffered neutral formalin. The eyes were processed, sectioned, and then stained with hematoxylin and eosin, as well as Masson's Trichrome. The specimens were examined in a masked fashion by an independent observer.
Transmission electron microscopy was performed by fixing tissue samples in 2.5% glutaraldehyde buffered with 0.1 M cacodylate containing 7% sucrose. Tissues were post fixed for one hour with 2% osmium tetroxide and dehydrated through graded alcohol concentrations to 100% ethanol. The 2×5 mm tissue blocks were then infiltrated with catalyzed epoxy resin. Thick sections (0.5 μm) were cut and stained with toluidine blue and examined by light microscopy to determine appropriate areas. Thin section (80 nm) were then cut, picked up on copper grids, and stained with uranyl acetate and lead citrate for TEM evaluation. A Hitachi H7000 transmission electron microscope was used to examine these sections.

control eye = assay: Toxicity: control eye examination and adverse events (Example 2); type: in vivo, rabbit; conditions: for Fibrin clot within the first four days: resolved without sequelae by end of first week
From the text: as §1, §2
In FIGS. 3, 4 and 5, a statistical difference was observed between groups (P ,0.001). The bleb height and extent, as well as other slit lamp characteristics, were analyzed by a chi-square test. Adverse events also were analyzed by a chi-square test. A Cox Proportional Hazard Model was used to evaluate for parameters that most accurately predicted filtration bleb survival on each examination day.

[7] = postoperative day 5, irradiation time 30 seconds
[8] = postoperative day 5, irradiation time 1 minute
[9] = postoperative day 5, irradiation time 2 minutes
[10] = postoperative day 5, irradiation time 3 minutes
[11] = postoperative day 11, irradiation time 30 seconds
[12] = postoperative day 11, irradiation time 1 minute
[13] = postoperative day 11, irradiation time 2 minutes
[14] = postoperative day 11, irradiation time 3 minutes
[15] = day 7, eyes that received BPD at surgery

## O=c1[nH]cc(F)c(=O)[nH]1 [5-Fluorouracil]
Filtration bleb [1]
  Filtration Bleb Survival (mean days ± SD): 19.5 ± 5.5 days
  Filtration Bleb Survival [range]: 14 to 25 days

## Nc1ncnc2c1ncn2[C@@H]1O[C@H](CO)[C@@H](O)[C@@H]1O [Ara-A]
Filtration bleb [1]
  Filtration Bleb Survival (mean days ± SD): 15.2 ± 1.8 days

## N#CCCN [BAPN, Beta-aminopropionitrite]
Patients [2]
  Patients with IOP kept below 22 mm Hg: 74%
Bleb scarring
  Potency in animal studies: only limited potency

## CC(C)(S)[C@@H](N)C(=O)O [D-penicillamine]
Bleb scarring
  Potency in animal studies: only limited potency

## CO[C@@]12[C@H](COC(N)=O)C3=C(C(=O)C(C)=C(N)C3=O)N1C[C@@H]1N[C@@H]12 [Mitomycin-C]
Filtration bleb [1]
  Filtration Bleb Survival (mean days ± SD): 34.8 ± 28.8 days
  Filtration Bleb Survival [range]: 6 to 23.2 days
Patients [3]
  Ocular hypotony (IOP less than 5 or 6 mm Hg), fraction of patients treated: ⅓
  Probability of late-onset bleb leaks: around 25%

## O=c1[nH]c(=O)n([C@H]2C[C@H](O)[C@@H](CO)O2)cc1F [floxuridine]
Ocular fibroblasts
  Potency relative to fluorouracil in long-term inhibition of ocular fibroblasts: about 100 times

## Bleomycin
Filtration bleb [1]
  Filtration Bleb Survival (mean days ± SD): 25.5 ± 14.5 days
  Filtration Bleb Survival [range]: 21 to 50 days

## benzoporphyrin derivative monoacid ring A [BPD-MA]
Filtration bleb [4]; light doses 0-24 J/cm^2
  Survival of the filtration bleb versus light dose: longest in eyes treated with light at a medium range of doses
Filtration bleb [4]; [7]
  Bleb Height: Small
  Bleb Vascularity: Vascular
Filtration bleb [4]; postoperative day 5, irradiation time 30 seconds, 2 mg/mL topical 2 min, 690 nm light
  IOP Decrease: Minimal
Filtration bleb [4]; [8]
  Bleb Height: Maximum
  Bleb Vascularity: Avascular
Filtration bleb [4]; postoperative day 5, irradiation time 1 minute, 2 mg/mL topical 2 min, 690 nm light
  IOP Decrease: >20 mm Hg
Filtration bleb [4]; [9]
  Bleb Height: Maximum
  Bleb Vascularity: Avascular'
Filtration bleb [4]; postoperative day 5, irradiation time 2 minutes, 2 mg/mL topical 2 min, 690 nm light
  IOP Decrease: 20 mm Hg
Filtration bleb [4]; [10]
  Bleb Height: Small
  Bleb Vascularity: Vascular
Filtration bleb [4]; postoperative day 5, irradiation time 3 minutes, 2 mg/mL topical 2 min, 690 nm light
  IOP Decrease: 2.5 mm Hg
Filtration bleb [4]; postoperative day 5, irradiation time 4 minutes
  Bleb Vascularity: Vascular
Filtration bleb [4]; postoperative day 5, irradiation time 4 minutes, 2 mg/mL topical 2 min, 690 nm light
  IOP Decrease: 0-4 mm Hg
Filtration bleb [4]; [11]
  Bleb Height: Minimal
  Bleb Vascularity: Vascular
  IOP Decrease: 2.3 mm Hg
Filtration bleb [4]; [12]
  Bleb Height: Maximum
  Bleb Vascularity: Avascular
  IOP Decrease: >20 mm Hg
Filtration bleb [4]; [13]
  Bleb Height: Maximum
  Bleb Vascularity: Avascular'
  IOP Decrease: >20 mm Hg
Filtration bleb [4]; [14]
  Bleb Height: Low
  Bleb Vascularity: Vascular
  IOP Decrease: 3-4 mm Hg
Filtration bleb [4]; postoperative day 11, irradiation time 4 minutes
  Bleb outcome (rabbit sacrificed): bleb failure
Filtration bleb [5]; BPD and light at relatively low doses, especially during surgery
  Inflammatory response (erythema over the bleb): prevented the development of inflammation
Filtration bleb [5]; BPD and light during surgery (Groups 2 and 4)
  Bleb survival in comparison with placebo control or treatment only at 48 hours: prolonged bleb survival
Filtration bleb [5]; BPD given intraoperatively, P=0.057
  IOP (ANOVA): trend toward lower IOP
Filtration bleb [5]; Group 2: BPD treatment during surgery, placebo 48 hours post surgery
  Mean (±SD) filtration bleb survival time: 23.8 ± 12 days
Filtration bleb [5]; Group 3 (BPD only at 48 hours), FIG. 5
  Erythema over the bleb: higher inflammatory response
Filtration bleb [5]; Group 3: placebo during surgery, BPD treatment 48 hours post surgery
  Mean (±SD) filtration bleb survival time: 10.1 ± 9 days
Filtration bleb [5]; Group 4
  Effect of second treatment with BPD and light at 48 hours: did not appear to have any additional effect
Filtration bleb [5]; Group 4: BPD treatment during surgery and 48 hours post surgery
  Mean (±SD) filtration bleb survival time: 23.2 ± 8 days
Filtration bleb [5]; up to 12 days postoperatively, FIG. 3, FIG. 4
  Extent and height of the bleb: indicated the effectiveness of low-dose PDT treatment during surgery
Filtration bleb [5]; versus Table 2 literature values
  Filtration bleb survival compared to previous rabbit studies: prolonged the filtration bleb survival compared to normal controls, Ara-A and 5-fluorouracil
Filtration bleb [5]; versus literature
  Life of the filtration bleb compared with mitomycin C studies: longer that in some rabbits who received mitomycin C
Filtration bleb [6]; day 7, BPD only at day 2 (Group 3)
  Light microscopy of filtering bleb: increased lymph channels in addition to the fibroblasts, but no vascular proliferation
Filtration bleb [6]; [15]
  Light microscopy of filtering bleb: fibroblasts, vessels, lymph channels: no fibroblasts, vascular increase or lymphocytic channel increase
  Light microscopy of filtering bleb: lymphocytic response: mild lymphocytic response
Filtration bleb [6]; end of the study (three weeks postoperatively)
  Histology of eye fistulas: only a few lymphocytes and no proliferation of blood vessels at the fistula
Filtration bleb [6]; rabbit, in vivo
  Epithelium finding: thinned epithelium
Filtration bleb [6]; surgical or control eye
  Histologic and transmission electron microscopic analysis for toxicity: no evidence of toxicity or inflammation apart from the filtration site
Control eye; Group 2
  Fibrin clot within the first four days: three
Control eye; Group 3
  Fibrin clot within the first four days: three
Control eye; all groups
  Adverse events: few and not related specifically to the use of the photosensitizer
Control eye; control eye, P>0.05
  Anterior segment ocular exam of control eye, placebo versus BPD-treated: no differences between the placebo and BPD-treated eyes
